According to ChEMBL document CHEMBL1121768, “Synthesis and platelet aggregation inhibitory activity of 4,5-bis(aryl)-2-substituted-thiazoles” (J Med Chem, 1981):
Values after ≈ are worked out from the molar mass of the structure shown.

Key:
Type in all cases: functional
[1] = tested on: Cavia porcellus; assay: Percent inhibition of platelet aggregation following oral administration to guinea pigs at a dose of 1 mg/kg
[2] = tested on: Cavia porcellus; assay: Percent inhibition of platelet aggregation following oral administration to guinea pigs at a dose of 5 mg/kg
[3] = species on record: Homo sapiens; assay: In vitro inhibition of collagen-induced platelet aggregation in human platelet rich plasma
[4] = tested on: Cavia porcellus; assay: Percent inhibition of platelet aggregation following oral administration to guinea pigs at a dose of 10 mg/kg
[5] = species on record: Cavia porcellus; assay: In vitro inhibition of collagen-induced platelet aggregation in guinea pig platelet rich plasma
[6] = tested on: Cavia porcellus; assay: Percent inhibition of platelet aggregation at 16 hours following oral administration to guinea pigs at 5 mg/kg
[7] = tested on: Cavia porcellus; assay: Percent inhibition of platelet aggregation at 2 hours following oral administration to guinea pigs at 5 mg/kg
[8] = tested on: Cavia porcellus; assay: Percent inhibition of platelet aggregation at 24 hours following oral administration to guinea pigs at 5 mg/kg
[9] = tested on: Cavia porcellus; assay: Percent inhibition of platelet aggregation at 4 hours following oral administration to guinea pigs at 5 mg/kg
[10] = tested on: Cavia porcellus; assay: Percent inhibition of platelet aggregation at 8 hours following oral administration to guinea pigs at 5 mg/kg
[11] = tested on: Cavia porcellus; assay: Percent inhibition of platelet aggregation following oral administration to guinea pigs at a dose of 0.1 mg/kg
[12] = tested on: Cavia porcellus; assay: Percent inhibition of platelet aggregation following oral administration to guinea pigs at a dose of 0.5 mg/kg
[13] = tested on: Cavia porcellus; assay: Percent inhibition of platelet aggregation at 0 hours following oral administration to guinea pigs at 5 mg/kg
[14] = tested on: Cavia porcellus; assay: Percent inhibition of platelet aggregation at 12 hours following oral administration to guinea pigs at 5 mg/kg

COc1ccc(-c2nc(CC(N)=O)sc2-c2ccc(OC)cc2)cc1
inhibition in vivo at 1 mg/kg [1]: 39% | inhibition in vivo at 5 mg/kg [2]: 96% | IC50 [3]: 0.0032 µg/mL (≈ 0.00903 µM) | inhibition in vivo at 10 mg/kg [4]: 100%

COc1ccc(-c2nc(C(C)(C)CO)sc2-c2ccc(OC)cc2)cc1
IC50 [5]: 0.01 µg/mL (≈ 0.0271 µM) | IC50 [3]: 0.0032 µg/mL (≈ 0.00866 µM)

COc1ccc(-c2nc(CC(=O)[O-])sc2-c2ccc(OC)cc2)cc1.[Li+]
IC50 [3]: 0.032 µg/mL

COc1ccc(-c2nc(CCO)sc2-c2ccc(OC)cc2)cc1
IC50 [5]: 0.0032 µg/mL (≈ 0.00937 µM) | inhibition in vivo at 1 mg/kg [1]: 9% | inhibition in vivo at 5 mg/kg [2]: 79% | IC50 [3]: 0.00032 µg/mL (≈ 0.000937 µM) | inhibition in vivo at 10 mg/kg [4]: 100%

FC(F)(F)c1nc(-c2ccc(Cl)cc2)c(-c2ccc(Cl)cc2)s1
IC50 [3]: 0.032 µg/mL (≈ 0.0855 µM)

FC(F)(F)c1nc(-c2ccccc2)c(-c2ccccc2)s1
IC50 [3]: 0.32 µg/mL (≈ 1.05 µM)

COC(=O)Cc1nc(-c2ccc(OC)cc2)c(-c2ccc(OC)cc2)s1
IC50 [3]: 0.0001 µg/mL (≈ 0.000271 µM)

COc1ccc(-c2nc(C)sc2-c2ccc(OC)cc2)cc1
IC50 [3]: 0.00032 µg/mL (≈ 0.00103 µM)

COc1ccc(-c2ncsc2-c2ccc(OC)cc2)cc1
IC50 [3]: 0.032 µg/mL (≈ 0.108 µM)

COc1ccc(-c2nc(C(C)C)sc2-c2ccc(OC)cc2)cc1
IC50 [5]: 0.01 µg/mL (≈ 0.0295 µM) | inhibition in vivo at 1 mg/kg [1]: 6% | inhibition in vivo at 5 mg/kg [2]: 85% | IC50 [3]: 0.0032 µg/mL (≈ 0.00943 µM) | inhibition in vivo at 10 mg/kg [4]: 100%

COC(=O)C(C)(C)c1nc(-c2ccc(OC)cc2)c(-c2ccc(OC)cc2)s1
IC50 [5]: 0.01 µg/mL (≈ 0.0252 µM) | inhibition in vivo at 1 mg/kg [1]: 27% | inhibition in vivo at 5 mg/kg [2]: 100% | IC50 [3]: 0.0032 µg/mL (≈ 0.00805 µM) | inhibition in vivo at 10 mg/kg [4]: 100%

CC(=O)Oc1ccccc1C(=O)O [ASPIRIN]
IC50 [3]: 10 µg/mL (≈ 55.5 µM)

CC(C(=O)O)c1ccc(-c2ccccc2)c(F)c1 (centres undefined) [FLURBIPROFEN]
IC50 [5]: 0.32 µg/mL (≈ 1.31 µM) | IC50 [3]: 0.32 µg/mL (≈ 1.31 µM)

COc1ccc(-c2nc(C(F)(F)F)sc2-c2ccc(OC)cc2)cc1 [ITAZIGREL]
IC50 [5]: 0.01 µg/mL (≈ 0.0274 µM) | inhibition in vivo at 5 mg/kg [6]: 16.2% | inhibition in vivo at 5 mg/kg [7]: 97% | inhibition in vivo at 5 mg/kg [8]: 10.3% | inhibition in vivo at 5 mg/kg [9]: 68.5% | inhibition in vivo at 5 mg/kg [10]: 93.2% | inhibition in vivo at 0.1 mg/kg [11]: 6% | inhibition in vivo at 0.5 mg/kg [12]: 68.5% | inhibition in vivo at 1 mg/kg [1]: 83% | inhibition in vivo at 5 mg/kg [2]: 100% | inhibition in vivo at 5 mg/kg [13]: 0% | inhibition in vivo at 5 mg/kg [14]: 48.7% | IC50 [3]: 0.001 µg/mL (≈ 0.00274 µM) | inhibition in vivo at 10 mg/kg [4]: 100%
